Like-named read-outs stand apart in the source and are kept apart here. Bridge positions count the residues as written; N and C are the ends. Square brackets hold non-standard residues; d marks the D form. Peptide text beside a SMILES is read from it. * marks the point of attachment. Ileψ(thiazoline)Cys = CC[C@H](C)[C@H](N)C1=N[C@H](C(=O)*)CS1; dOrn = NCCC[C@@H](N)C(=O)O
How the values were obtained:
Type in all cases: cell-based, Bacillus subtilis
[1] = test system: B. subtilis liaH mutant HB0920 gene expression; assay: microbe, parasite or virus in culture; conditions: for fold induction at 100 µg/mL: Bacillus subtilis; for Fold induction 15 min / Fold induction 5 min: 100 μg/mL, listed as zinc-bacitracin
From the text: The bacitracin stimulon of B. subtilis was examined using global transcriptome analysis. […] Under most conditions tested, about 60-70 genes were induced greater than 5-fold. […] The scatter-plot represents the data sets obtained for strain HB0920 (yvqH was still detected as bacitracin-inducible due to the presence of a remaining region near the 5′-end of the gene). […] Members of the σ^M (white open squares) and σ^B (small black triangles) regulon are highlighted. All other gene signals are represented as small gray diamonds. Note that for the generation of this graphical display the data sets could not be filtered to remove low quality and non-reproducible signals, thus some of the background signals (small gray diamonds) that appear to represent highly regulated genes are not significant.
The liaH-deletion mutant was included in the analysis because the well-characterized LiaH-homologue in E. coli, PspA, functions as a repressor of transcription (Adams et al., 2003, J Bacteriol. 185: 1174-1180; Bordes et al., 2003, Proc Natl Acad Sci USA. 100: 2278-2283, the entire teachings of which are incorporated herein by reference). […] Similar results were obtained with CU1065.
For microarray analysis 100 mL of LB medium were inoculated from a fresh overnight LB-plate and incubated at 37° C. with aeration until the culture reached an O.D.600≈0.45, when the culture was split: 30 mL served as an un-induced control. To the remaining culture bacitracin was added to a final concentration of 100 μg/mL and 30 mL samples were taken 5 and 15 min after addition. The cells were harvested by centrifugation at room temperature and cell pellets were shock frozen and stored at −70° C. for at least 30 min. […] After extraction the RNA was purified using the RNA clean-up protocol of the RNeasy kit (Qiagen) with on-column DNase treatment in order to remove abundant small RNA molecules (tRNAs and 5S rRNA) and residual genomic DNA.
Each slide contains 9220 features corresponding to duplicate copies of each open reading frame, additional PCR products for some ORFs, rRNA genes, and other controls. RNA preparations were used to synthesize Cy3- and Cy5-labeled cDNA and hybridization was performed as described (Ye et al., 2000, J Bacteriol. 182: 4458-4465; Ye et al., 2001, J Microbiol Methods. 47: 257-272, the entire teaching of which are incorporated herein by reference). All comparisons were performed twice (once each with Cy3 and Cy5) to control for possible differences in labeling efficiency between fluorophores. Fluorescent signal intensity data was quantified using ArrayVision software (Molecular Dynamics) and normalized to the total detectable mRNA. Mean fluorescence intensity is set to 1.0 with a value of 0.1 corresponding to background. Each expression ratio is represented by at least four separate measurements (duplicate spots on each of two slides).

[2] = test system: liaI expression (liaI::pMUTIN lacZ fusion, strain BFS2470; also liaH::pMUTIN, BFS2469); assay: Disk-diffusion assay, blue ring on X-Gal plates; as to Disk-diffusion assay: key: −: no induction; +: induction of yvql expression
From the text: The pMUTIN-insertion results in a disruption of the targeted gene and generates a transcriptional fusion to lacZ thereby allowing detection of both antibiotic sensitivity (as defined by the zone of inhibition around the disk) and inducibility (by the formation of a blue ring at the edge of the zone of inhibition) (Cao et al., 2002, Mol Microbiol. 45: 1267-1276, the entire teaching of which is incorporated herein). The disruption of liaI and liaH had no effect on the sensitivity of the mutants to any of the antibiotics tested. […] Equivalent levels of induction were also observed with the PliaI-74-cat-lacZ fragment (in HB0950), albeit with lower fold-changes (See, Table 2). While the mode of action is different for these antibiotics, all four interfere with the lipid II cycle, essential for the biosynthesis of cell envelope polymers (Lazar et al., 2002, Curr. Opin. Chem. Biol. 6: 786-93).
PliaI induction assays: Screening for liaI induction was done by disk diffusion assay essentially as described (Cai, S. J., and M. Inouye, 2002, J Biol Chem 277:24155-61). B. subtilis strains were inoculated from a fresh overnight LB agar plate and grown to mid-log phase (OD600 ˜0.45) at 37 YC with shaking. 20 μl of the culture was mixed with 3 ml of 0.7% soft LB agar (containing 40 μg of X-Gal per plate) and poured onto the bottom agar. After cooling and drying of the plates (20 min at 37 YC), filter paper disks (6 mm diameter) carrying 5 μl of stock solution (antibiotics normally 100 mg/ml; lysozyme 10 mg/ml; tunicamycin, surfactants, uncouplers 5 mg/ml each; inhibitors of protein biosynthesis as given in the media and growth conditions section) were placed on top of the agar. The plates were incubated at 37 YC overnight. After 12-24 h incubation, the plates were scored for the appearance of a blue ring at or near the edge of the zone of growth inhibition produced by the diffusion of the antibiotics from the filter disk.

[3] = test system: liaH expression (liaH::pMUTIN, strain BFS2469); assay: Quantitative β-galactosidase assay, strain BFS2469; conditions: bacitracin 100 μg/mL, 30 minutes
Method: Specifically, cultures of B. subtilis strain BFS2469 (liaH::pMUTIN) and BFS2470 (liaI::pMUTIN) were grown in LB medium to midlog phase, 2 mL for the un-induced control sample were harvested, and the remaining culture was induced with the three antibiotics for 30 minutes, before the cells of the induced sample were harvested. All samples were taken in duplicate from two independent cultures and the standard deviation is indicated by error bars.
Measurement of induction by β-galactosidase assays: Cells were inoculated from fresh overnight LB-plates and grown in LB-medium at 37° C. with aeration until they reached an O.D.600=0.45. 2 mL of cultures were harvested (un-induced control) and the cell pellets were shock frozen and kept at −70° C. The cultures were induced by addition of antibiotics to a final concentration of: bacitracin (100 μg/mL), tunicamycin (50 μg/mL) or vancomycin (2 μg/mL) and incubated for additional 30 min at 37° C. 2 mL of the cultures were harvested as described above (induced sample). The pellets were re-suspended in 1 mL of working buffer and assayed for β-galactosidase activity as described with normalization to cell density (Miller, 1972, the entire teaching of which is incorporated herein by reference).

## CC[C@H](C)[C@H](N)C1=N[C@H](C(=O)N[C@@H](CC(C)C)C(=O)N[C@H](CCC(=O)O)C(=O)N[C@H](C(=O)N[C@H]2CCCCNC(=O)[C@H](CC(N)=O)NC(=O)[C@@H](CC(=O)O)NC(=O)[C@H](Cc3cnc[nH]3)NC(=O)[C@@H](Cc3ccccc3)NC(=O)[C@H]([C@@H](C)CC)NC(=O)[C@@H](CCCN)NC2=O)[C@@H](C)CC)CS1 [Bacitracin] ({Ileψ(thiazoline)Cys}-L[dE]IK[dOrn]I[dF]H[dD]N; lactam 4-C)
[1]; 5 min, read-out: Fold induction 5 min, gene bcrC, 100 μg/mL, 5 min
  fold induction at 100 µg/mL: ~10
[1]; 5 min, read-out: Fold induction 5 min, gene cadA (yvgW), 100 μg/mL, 5 min
  fold induction at 100 µg/mL: 58
[1]; 5 min, read-out: Fold induction 5 min, gene cotY, 100 μg/mL, 5 min
  fold induction at 100 µg/mL: 9.4
[1]; 5 min, read-out: Fold induction 5 min, gene czcD, 100 μg/mL, 5 min
  fold induction at 100 µg/mL: 61
[1]; 5 min, read-out: Fold induction 5 min, gene czcO (trkA), 100 μg/mL, 5 min
  fold induction at 100 µg/mL: 33
[1]; 5 min, read-out: Fold induction 5 min, gene ydhK, 100 μg/mL, 5 min
  fold induction at 100 µg/mL: 12
[1]; 5 min, read-out: Fold induction 5 min, gene yetG, 100 μg/mL, 5 min
  fold induction at 100 µg/mL: 1.4
[1]; 5 min, read-out: Fold induction 5 min, gene ykvS, 100 μg/mL, 5 min
  fold induction at 100 µg/mL: 5.9
[1]; 5 min, read-out: Fold induction 5 min, gene ytzB, 100 μg/mL, 5 min
  fold induction at 100 µg/mL: 2.8
[1]; 5 min, read-out: Fold induction 5 min, gene yybR, 100 μg/mL, 5 min
  fold induction at 100 µg/mL: 5.4
[1]; 5 min, read-out: Fold induction 5 min, gene(s) bacAB (ytsCD), 100 μg/mL, 5 min
  fold induction at 100 µg/mL: 280
[1]; 5 min, read-out: Fold induction 5 min, gene(s) gerAA/AB, 100 μg/mL, 5 min
  fold induction at 100 µg/mL: 7.1
[1]; 5 min, read-out: Fold induction 5 min, gene(s) ycgRQ, 100 μg/mL, 5 min
  fold induction at 100 µg/mL: 6.7
[1]; 5 min, read-out: Fold induction 5 min, gene(s) ygaCD, 100 μg/mL, 5 min
  fold induction at 100 µg/mL: 2
[1]; 5 min, read-out: Fold induction 5 min, gene(s) yhcYZ-yhdA, 100 μg/mL, 5 min
  fold induction at 100 µg/mL: 20
[1]; 5 min, read-out: Fold induction 5 min, gene(s) yjbIH, 100 μg/mL, 5 min
  fold induction at 100 µg/mL: 5.2
[1]; 5 min, read-out: Fold induction 5 min, gene(s) ykuNOP, 100 μg/mL, 5 min
  fold induction at 100 µg/mL: 1.4
[1]; 5 min, read-out: Fold induction 5 min, gene(s) ytrBCDEF, 100 μg/mL, 5 min
  fold induction at 100 µg/mL: 9.1
[1]; 5 min, read-out: Fold induction 5 min, gene(s) yvcRS, 100 μg/mL, 5 min
  fold induction at 100 µg/mL: 12
[1]; 5 min, read-out: Fold induction 5 min, gene(s) yvqGFEC, 100 μg/mL, 5 min
  fold induction at 100 µg/mL: 6
[1]; 5 min, read-out: Fold induction 5 min, gene(s) yvqIH, 100 μg/mL, 5 min
  fold induction at 100 µg/mL: 772
[1]; 0.25 h, read-out: Fold induction 15 min, gene bcrC, 100 μg/mL, 15 min
  fold induction at 100 µg/mL: ~10
[1]; 0.25 h, read-out: Fold induction 15 min, gene cadA (yvgW), 100 μg/mL, 15 min
  fold induction at 100 µg/mL: 9.8
[1]; 0.25 h, read-out: Fold induction 15 min, gene cotY, 100 μg/mL, 15 min
  fold induction at 100 µg/mL: 5.9
[1]; 0.25 h, read-out: Fold induction 15 min, gene czcD, 100 μg/mL, 15 min
  fold induction at 100 µg/mL: 3.8
[1]; 0.25 h, read-out: Fold induction 15 min, gene czcO (trkA), 100 μg/mL, 15 min
  fold induction at 100 µg/mL: 2.8
[1]; 0.25 h, read-out: Fold induction 15 min, gene ydhK, 100 μg/mL, 15 min
  fold induction at 100 µg/mL: 4.4
[1]; 0.25 h, read-out: Fold induction 15 min, gene yetG, 100 μg/mL, 15 min
  fold induction at 100 µg/mL: 10
[1]; 0.25 h, read-out: Fold induction 15 min, gene ykvS, 100 μg/mL, 15 min
  fold induction at 100 µg/mL: 10
[1]; 0.25 h, read-out: Fold induction 15 min, gene ytzB, 100 μg/mL, 15 min
  fold induction at 100 µg/mL: 11
[1]; 0.25 h, read-out: Fold induction 15 min, gene yybR, 100 μg/mL, 15 min
  fold induction at 100 µg/mL: 3.7
[1]; 0.25 h, read-out: Fold induction 15 min, gene(s) bacAB (ytsCD), 100 μg/mL, 15 min
  fold induction at 100 µg/mL: 360
[1]; 0.25 h, read-out: Fold induction 15 min, gene(s) gerAA/AB, 100 μg/mL, 15 min
  fold induction at 100 µg/mL: 4.2
[1]; 0.25 h, read-out: Fold induction 15 min, gene(s) ycgRQ, 100 μg/mL, 15 min
  fold induction at 100 µg/mL: 7.9
[1]; 0.25 h, read-out: Fold induction 15 min, gene(s) ygaCD, 100 μg/mL, 15 min
  fold induction at 100 µg/mL: 12
[1]; 0.25 h, read-out: Fold induction 15 min, gene(s) yhcYZ-yhdA, 100 μg/mL, 15 min
  fold induction at 100 µg/mL: 14
[1]; 0.25 h, read-out: Fold induction 15 min, gene(s) yjbIH, 100 μg/mL, 15 min
  fold induction at 100 µg/mL: 7.1
[1]; 0.25 h, read-out: Fold induction 15 min, gene(s) ykuNOP, 100 μg/mL, 15 min
  fold induction at 100 µg/mL: 12
[1]; 0.25 h, read-out: Fold induction 15 min, gene(s) ytrBCDEF, 100 μg/mL, 15 min
  fold induction at 100 µg/mL: 9.7
[1]; 0.25 h, read-out: Fold induction 15 min, gene(s) yvcRS, 100 μg/mL, 15 min
  fold induction at 100 µg/mL: 24
[1]; 0.25 h, read-out: Fold induction 15 min, gene(s) yvqGFEC, 100 μg/mL, 15 min
  fold induction at 100 µg/mL: 7
[1]; 0.25 h, read-out: Fold induction 15 min, gene(s) yvqIH, 100 μg/mL, 15 min
  fold induction at 100 µg/mL: 1060
[1]; gene bcrC
  Fold induction 15 min: 9.5 fold
[1]; gene(s) bacAB (ytsCD), 5 min
  Fold induction 5 min: 282 fold
[1]; gene(s) bacAB (ytsCD)
  Fold induction 15 min: 365 fold
[1]; gene(s) yhcYZ-yhdA, 5 min
  Fold induction 5 min: 21 fold
[1]; gene(s) yvcRS
  Fold induction 15 min: 25 fold
[1]; gene(s) yvqGFEC, 5 min
  Fold induction 5 min: 6.1 fold
[2]; qualitative screen of β-Galactosidase activity, blue ring at edge of zone of inhibition, LB plates with X-Gal, strain BFS2470
  disk-diffusion assay: +
[2]; strains BFS2469 and BFS2470
  induction of liaI / liaH expression, in words: induced
[3]
  fold increase in liaH expression: 90 fold

Source: US7309484B2, “Compositions and methods for screening antibacterial compounds” (priority 2003, dated 2007)
